Patent US5045566A, “Novel imidate insecticides” (ICI Americas Inc., priority 1989, dated 1991)

Tests used:
Format in all cases: in vivo
[1] = test system: Cabbage Looper [Trichoplusia ni (Hubner)]; assay: Cabbage looper leaf dip (CL), 3-5 days; conditions: percent in solution, second-instar larvae
Method in brief: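 Compounds in 50-50 acetone-water were applied by dipping squash cotyledons (about 1×1.5 in) for 2-3 s; dried leaves went into petri dishes on moist filter paper with 5 second-instar larvae under high humidity. Mortality was scored after 3-5 days; LC50 from dosage-mortality curves, as percent compound in solution.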

[2] = test system: Housefly [Musca domestica]; assay: Housefly contact mortality in dishes (HF), 48 hours; conditions: μg of test compound per 25 female flies
Method in brief: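 Dry-film exposure of 25 female houseflies per cage, 48 h; LC50 as μg per 25 flies.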

[3] = test system: Black Bean Aphid [Aphis fabae (Scop.)]; assay: Black bean aphid spray test on nasturtium (BBA), 48 hours; conditions: percent of test compound in sprayed solution
Method in brief: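 LC50, given as percent test compound in the sprayed liquid, was calculated from dosage-mortality curves using concentrations from 0.05% downward. Sprays in 50:50 acetone-water went to runoff on ~5 cm nasturtiums carrying 25-50 aphids of mixed ages, one day after infestation. Deaths were counted 48 h later under greenhouse conditions.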

[4] = test system: Tobacco Budworm [Heliothis virescens (Fabricius)] eggs; assay: Tobacco budworm eggs (TBW-E); conditions: percent in solution; 2-day old eggs
Method in brief: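 Paper towel patches bearing 2-day old eggs were dipped in acetone solutions of compound, then set in petri dishes over larval rearing medium at 78° F. Mortality was scored once all control eggs had hatched and larvae were feeding. LC50, from dosage-mortality curves, is given as percent compound in solution.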

[5] = test system: Maize weevil [Sitophilus zeamais (Motschulsky)]; assay: Maize weevil on dipped corn seeds (MW), 48 hours; conditions: percent in solution, adult weevils
Procedure: The compounds in Tables 1 and 2 above were tested for insecticidal activity using the following testing procedures. LC50 values, based on the results of these tests and calculated according to dosage-mortality curves, are expressed in Table 3.
Maize weevil [Sitophilus zeamais (Motschulsky)]:
Test compounds were diluted in a 50:50 acetone:water solution. Four corn seeds [Zea mays (L.)] which had been immersed in test solutions for 2-3 seconds and allowed to dry were placed in containers together with 10 adult weevils. The containers were covered and kept at a temperature of about 25° C. Mortality was recorded after 48 hours. Test concentrations ranged from 0.01% down to that at which 50% mortality occurred. The LC50 values are expressed below in Table 3 under the heading "MW" in terms of percent of the test compound in solution.

SMILES: COCc1c(F)c(F)c(COC(=Nc2cccc(C(F)(F)F)c2)C(C)C)c(F)c1F [Compound 503]
- LC50 CL [1]: 0.001%
- LC50 HF [2]: 21 µg
- LC50 BBA [3]: 0.006%
- LC50 TBW E (eggs) [4]: 0.08%
- LC50 MW [5]: > 0.01%

SMILES: CC(C)C(=Nc1ccc(F)c(Cl)c1)OCc1ccnc(Oc2ccccc2)c1 [Compound 510]
- LC50 CL [1]: 0.017%
- LC50 HF [2]: 54 µg
- LC50 BBA [3]: 0.05%
- LC50 TBW E (eggs) [4]: > 0.1%
- LC50 MW [5]: > 0.01%

SMILES: CC(C)C(=Nc1cccc(OC(F)(F)F)c1)OCc1ccc(F)c(Oc2ccccc2)c1 [Compound 437]
- LC50 CL [1]: 0.00075%
- LC50 HF [2]: < 100 µg
- LC50 BBA [3]: 0.0003%
- LC50 TBW E (eggs) [4]: 0.025%
- LC50 MW [5]: > 0.01%

SMILES: CCOc1cccc(N=C(OCc2ccc(F)c(Oc3ccc(F)cc3)c2)C(C)C)c1 [Compound 426]
- LC50 CL [1]: 0.002%
- LC50 HF [2]: > 100 µg
- LC50 BBA [3]: 0.0012%
- LC50 TBW E (eggs) [4]: > 0.1%
- LC50 MW [5]: > 0.01%

SMILES: CC(C)c1ccc(N=C(OCc2cccc(Oc3ccccc3)c2)C2CCC2)cc1 [Compound 339]
- LC50 CL [1]: 0.017%
- LC50 HF [2]: > 100 µg
- LC50 BBA [3]: 0.03%
- LC50 TBW E (eggs) [4]: > 0.1%
- LC50 MW [5]: > 0.01%

SMILES: COc1ccc(N=C(OCc2ccc(F)c(Oc3ccc(Cl)cc3)c2)C(C)C)cc1Cl [Compound 410]
- LC50 CL [1]: > 0.1%
- LC50 HF [2]: < 100 µg
- LC50 BBA [3]: 0.0025%
- LC50 TBW E (eggs) [4]: > 0.1%
- LC50 MW [5]: > 0.01%

SMILES: CC(C)C(=Nc1ccc(Cl)c(C(F)(F)F)c1)OCc1ccc(F)c(Oc2ccc(F)cc2)c1 [Compound 340]
- LC50 CL [1]: 0.00037%
- LC50 HF [2]: 34 µg
- LC50 BBA [3]: 0.001%
- LC50 TBW E (eggs) [4]: 0.04%
- LC50 MW [5]: 0.0069%

SMILES: CC(C)C(=Nc1ccc(OCC(F)(F)F)cc1)OCc1cccc(Oc2ccccc2)c1 [Compound 423]
- LC50 CL [1]: 0.002%
- LC50 HF [2]: > 100 µg
- LC50 BBA [3]: > 0.05%
- LC50 TBW E (eggs) [4]: > 0.1%
- LC50 MW [5]: > 0.01%

SMILES: CC(C)C(=Nc1ccc(OC(F)(F)F)cc1)OCc1cccc(Oc2ccccc2)n1 [Compound 550]
- LC50 CL [1]: 0.00034%
- LC50 HF [2]: < 100 µg
- LC50 BBA [3]: 0.002%
- LC50 TBW E (eggs) [4]: > 0.1%
- LC50 MW [5]: > 0.01%

SMILES: CCOc1ccc(N=C(OCc2ccc(F)c(Oc3ccccc3)c2)C(C)C)cc1 [Compound 373]
- LC50 CL [1]: > 0.1%
- LC50 HF [2]: < 100 µg
- LC50 BBA [3]: 0.001%
- LC50 TBW E (eggs) [4]: > 0.1%
- LC50 MW [5]: > 0.01%

SMILES: CC(C)C(=Nc1ccc(F)c(Cl)c1)OCc1ccnc(Oc2ccc(F)cc2)c1 [Compound 511]
- LC50 CL [1]: 0.0012%
- LC50 HF [2]: 89 µg
- LC50 BBA [3]: 0.05%
- LC50 TBW E (eggs) [4]: > 0.1%
- LC50 MW [5]: > 0.01%

SMILES: CC(C)(C)C(=Nc1cccc(C(F)(F)F)c1)OCc1cccc(Oc2ccccc2)c1 [Compound 88]
- LC50 CL [1]: 0.018%
- LC50 HF [2]: > 100 µg
- LC50 BBA [3]: > 0.05%
- LC50 TBW E (eggs) [4]: > 0.1%
- LC50 MW [5]: > 0.01%

SMILES: COCc1c(F)c(F)c(COC(=Nc2ccc(F)c(Cl)c2)C(C)C)c(F)c1F [Compound 505]
- LC50 CL [1]: 0.0024%
- LC50 HF [2]: 14 µg
- LC50 BBA [3]: 0.002%
- LC50 TBW E (eggs) [4]: 0.09%
- LC50 MW [5]: > 0.01%

SMILES: CC(C)C(=Nc1ccc(I)c(Cl)c1)OCc1cccc(Oc2ccc(F)cc2)c1 [Compound 374]
- LC50 CL [1]: 0.00058%
- LC50 HF [2]: < 100 µg
- LC50 BBA [3]: 0.0008%
- LC50 TBW E (eggs) [4]: 0.02%
- LC50 MW [5]: > 0.01%

SMILES: CC(C)C(=Nc1ccc(Cl)cc1)OCc1cccc(Oc2ccccc2)n1 [Compound 553]
- LC50 CL [1]: < 0.1%
- LC50 HF [2]: < 100 µg
- LC50 BBA [3]: 0.05%
- LC50 TBW E (eggs) [4]: 0.1%
- LC50 MW [5]: > 0.01%

SMILES: COc1ccc(N=C(OCc2ccc(F)c(Oc3ccccc3)c2)C(C)C)cc1F [Compound 435]
- LC50 CL [1]: 0.002%
- LC50 HF [2]: < 100 µg
- LC50 BBA [3]: 0.001%
- LC50 TBW E (eggs) [4]: 0.04%
- LC50 MW [5]: > 0.01%

SMILES: C=C(C)C(=Nc1ccc(F)c(Cl)c1)OCc1cccc(Oc2ccccc2)c1 [Compound 417]
- LC50 CL [1]: 0.0008%
- LC50 HF [2]: < 100 µg
- LC50 BBA [3]: 0.004%
- LC50 TBW E (eggs) [4]: 0.04%
- LC50 MW [5]: > 0.01%

SMILES: Cc1cc(N=C(OCc2ccc(F)c(Oc3ccc(Cl)cc3)c2)C(C)C)ccc1F [Compound 399]
- LC50 CL [1]: 0.0012%
- LC50 HF [2]: < 100 µg
- LC50 BBA [3]: 0.0003%
- LC50 TBW E (eggs) [4]: 0.025%
- LC50 MW [5]: > 0.01%

SMILES: Cc1ccc(N=C(OCc2cccc(Oc3ccc(Cl)cc3)c2)C(C)C)cc1Cl [Compound 403]
- LC50 CL [1]: > 0.1%
- LC50 HF [2]: < 100 µg
- LC50 BBA [3]: 0.001%
- LC50 TBW E (eggs) [4]: > 0.1%
- LC50 MW [5]: > 0.01%

SMILES: C=C(C)C(=Nc1ccc(F)c(Cl)c1)OCc1ccc(F)c(Oc2ccc(Cl)cc2)c1 [Compound 415]
- LC50 CL [1]: 0.00075%
- LC50 HF [2]: < 100 µg
- LC50 BBA [3]: 0.0007%
- LC50 TBW E (eggs) [4]: 0.035%
- LC50 MW [5]: > 0.01%

SMILES: CC(C)C(=Nc1ccc(OCC(F)(F)F)c(F)c1)OCc1cccc(Oc2ccc(Cl)cc2)c1 [Compound 429]
- LC50 CL [1]: 0.0017%
- LC50 HF [2]: > 100 µg
- LC50 BBA [3]: 0.005%
- LC50 TBW E (eggs) [4]: < 0.1%
- LC50 MW [5]: > 0.01%

SMILES: CC(C)C(=Nc1ccc(C(F)(F)F)cc1Cl)OCc1cccc(Oc2ccc(F)cc2)c1 [Compound 427]
- LC50 CL [1]: < 0.1%
- LC50 HF [2]: > 100 µg
- LC50 BBA [3]: 0.05%
- LC50 TBW E (eggs) [4]: > 0.1%
- LC50 MW [5]: > 0.01%

SMILES: CC(C)C(=Nc1ccc(C(F)(F)F)c(Br)c1)OCc1ccc(F)c(Oc2ccccc2)c1 [Compound 434]
- LC50 CL [1]: 0.0017%
- LC50 HF [2]: < 100 µg
- LC50 BBA [3]: 0.003%
- LC50 TBW E (eggs) [4]: > 0.1%
- LC50 MW [5]: 0.009%

SMILES: CC(C)C(=Nc1cccc(C(F)(F)F)c1)OC(C)c1cccc(Oc2ccccc2)c1 (stereo not drawn) [Compound 459]
- LC50 CL [1]: 0.008%
- LC50 HF [2]: > 100 µg
- LC50 BBA [3]: > 0.05%
- LC50 TBW E (eggs) [4]: 0.1%
- LC50 MW [5]: > 0.01%

SMILES: CC(C)C(=Nc1ccc(Br)c(Br)c1)OCc1ccc(F)c(Oc2ccccc2)c1 [Compound 384]
- LC50 CL [1]: > 0.1%
- LC50 HF [2]: < 100 µg
- LC50 BBA [3]: 0.0008%
- LC50 TBW E (eggs) [4]: 0.025%
- LC50 MW [5]: > 0.01%

SMILES: Cc1ccc(Oc2cccc(COC(=Nc3ccc(C(C)(C)C)cc3)C(C)C)c2)cc1 [Compound 344]
- LC50 CL [1]: 0.024%
- LC50 HF [2]: > 100 µg
- LC50 BBA [3]: 0.008%
- LC50 TBW E (eggs) [4]: > 0.1%
- LC50 MW [5]: > 0.01%

SMILES: CC(C)C(=Nc1ccc(F)c(I)c1)OCc1ccc(F)c(Oc2ccccc2)c1 [Compound 334]
- LC50 CL [1]: 0.0007%
- LC50 HF [2]: 9 µg
- LC50 BBA [3]: 0.0006%
- LC50 TBW E (eggs) [4]: 0.013%
- LC50 MW [5]: > 0.01%

SMILES: CC(C)C(=Nc1ccc(I)c(Cl)c1)OCc1cccc(Oc2ccc(Cl)cc2)n1 [Compound 471]
- LC50 CL [1]: 0.00018%
- LC50 HF [2]: < 100 µg
- LC50 BBA [3]: 0.001%
- LC50 TBW E (eggs) [4]: 0.018%
- LC50 MW [5]: > 0.01%

SMILES: CC(C)C(=Nc1ccc(OCC(F)(F)F)c(Cl)c1)OCc1ccc(F)c(Oc2ccccc2)c1 [Compound 424]
- LC50 CL [1]: 0.00038%
- LC50 HF [2]: > 100 µg
- LC50 BBA [3]: 0.002%
- LC50 TBW E (eggs) [4]: 0.035%
- LC50 MW [5]: > 0.01%

SMILES: Cc1cc(N=C(OCc2ccc(F)c(Oc3ccccc3)c2)C(C)C)ccc1F [Compound 400]
- LC50 CL [1]: 0.0007%
- LC50 HF [2]: < 100 µg
- LC50 BBA [3]: 0.0003%
- LC50 TBW E (eggs) [4]: 0.025%
- LC50 MW [5]: > 0.01%

SMILES: Cc1ccc(N=C(OCc2ccc(F)c(Oc3ccc(Cl)cc3)c2)C(C)C)cc1Cl [Compound 404]
- LC50 CL [1]: > 0.1%
- LC50 HF [2]: < 100 µg
- LC50 BBA [3]: 0.002%
- LC50 TBW E (eggs) [4]: 0.025%
- LC50 MW [5]: > 0.01%

SMILES: CC(C)C(=Nc1cccc(Br)c1)OCc1cccc(Oc2ccc(Cl)cc2)n1 [Compound 557]
- LC50 CL [1]: 0.0004%
- LC50 HF [2]: < 100 µg
- LC50 BBA [3]: 0.0015%
- LC50 TBW E (eggs) [4]: > 0.1%
- LC50 MW [5]: > 0.01%

SMILES: Cc1cc(N=C(OCc2ccc(F)c(Oc3ccc(F)cc3)c2)C(C)C)ccc1F [Compound 396]
- LC50 CL [1]: 0.0017%
- LC50 HF [2]: < 100 µg
- LC50 BBA [3]: 0.0002%
- LC50 TBW E (eggs) [4]: < 0.1%
- LC50 MW [5]: > 0.01%
